Consider 1 substance from patent US20100075899A1, “TARGETED PHOTODYNAMIC THERAPY AGENT” (TRUSTEES OF THE UNIVERSITY OF PENNSYLVANIA, priority 2006, published 2010).

Data set [1] relates to KB cells (FR+). Description: Flow cytometry uptake (Pyro fluorescence), KB cells. Format: cell-based, human. As to the method:
(§1) Flow cytometry experiments. KB, HT 1080, and CHO cells were seeded in T25 flasks (each flask 10^6 cells) and grown for 1 day in complete MEM (KB cells and HT 1080 cells) or complete F12K (CHO cells) medium. […] The cells were detached by 0.25% Trypsin-EDTA, fixed by 1% formaldehyde (methanol free) in PBS, resuspended in 1 mL of PBS and immediately analyzed on a BD LSRII machine at the Flow Cytometry Laboratory, Abramson Cancer Center at the University of Pennsylvania focusing on Pyro fluorescence (exc. 633 nm, em. 695 nm).
Background: Flow cytometry measures light scatter and fluorescence of single cells or particles in a stream.

Data set [2] is classed as physicochemical. Here is the method:
Pyro-[…] (PP) Pyro-[…]-Folate (PPF) were purified by HPLC (Waters 600 Controller with a 2996 Photodiode Array Detector). The eluents were A=0.1M TEAA (pH 7) and B=acetonitrile and the method used for all injections was 90% of A and 10% of B to 100% of B in 45 minutes with flow 1.5 mL/min on a Zorbax 300SB-C3 column The coupling reagents HBTU (O-(Benzotriazol-1-yl)-N,N,N′,N′-tetramethyluronium hexafluorophosphate) and HOBt (1-Hydroxybenzotriazole) were purchased from Fluka and ACROS respectively. MALDI-ToF was measured on an Applied Biosystems Voyager DE Mass Spectrometer and fluorescence was measured on a Perkin Elmer LS50B Luminescence Spectrometer. We acquired confocal images using a Leica TCS SP2 Confocal Microscope and Xenogen images at the Bioluminescence Molecular Imaging Core facility at UPenn on an IVIS Xenogen Imager. KB cells (human epidermal cancer cells; folate receptor positive), HT 1080 cells (human fibrosarcoma cells; folate receptor negative), and CHO (Chinese hamster ovary cells; folate receptor negative) were purchased from ATCC. […]

Data set [3] concerns HT 1080 cells (FR−). Description: Flow cytometry uptake (Pyro fluorescence), HT 1080 cells. Format: cell-based, human. Here is the method: as §1
The subject of data set [4] is CHO cells (FR−). As to the kind of experiment: Flow cytometry uptake (Pyro fluorescence), CHO cells. Format: cell-based, Chinese hamster. As to the method:
as §1

Take Pyro-K-Folate [PKF]: the “uptake efficiency into KB cells relative to Pyro-GDEVDGSGK-Folate” value in data set [1] was 50%. The “solubility in water compared with PPF” value in data set [2] is reported as “less soluble in water”. Moreover, the “hydrophobicity (HPLC) compared with PPF” value in data set [2] (HPLC) is “more hydrophobic”. Further, the “uptake efficiency PPF versus PKF in HT 1080 cells” value in data set [3] was “with the same efficiency”. Besides, the “uptake efficiency PPF versus PKF in CHO cells” value in data set [4] is recorded as “with the same efficiency”.
